Laboratory results: patent US3985875A, “ω-(N-acylamino)alkylphosphoryl ethanolamines, pharmaceutical compositions containing them, and their uses” (Dainippon Pharmaceutical Co., Ltd., priority 1974, dated 1976)
Where two headings read alike, the source gives them in different places.

Legend:
[1] = biological target: T1, Renin (Homo sapiens, UniProt P00797); assay: Renin-inhibitory activity, Method I (inhibition of Angiotensin I formation, RIA); type: biochemical; conditions: for inhibition at 313 µg/mL: 0.313 mg/ml; for inhibition at 625 µg/mL: 0.625 mg/ml; for inhibition at 1250 µg/mL: 1.25 mg/ml; for inhibition at 2500 µg/mL: 2.5 mg/ml
T1 sequence (P00797 67-406): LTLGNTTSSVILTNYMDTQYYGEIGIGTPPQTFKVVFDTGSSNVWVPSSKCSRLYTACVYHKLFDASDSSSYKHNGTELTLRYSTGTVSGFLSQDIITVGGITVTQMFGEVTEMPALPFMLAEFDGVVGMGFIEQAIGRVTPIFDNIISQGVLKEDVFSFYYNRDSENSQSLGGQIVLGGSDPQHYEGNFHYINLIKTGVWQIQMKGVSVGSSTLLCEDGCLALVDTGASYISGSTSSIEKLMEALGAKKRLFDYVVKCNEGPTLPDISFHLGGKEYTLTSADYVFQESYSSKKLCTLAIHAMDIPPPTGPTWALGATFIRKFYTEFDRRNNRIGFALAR
Protocol: Renin (see E. Haas et al. Circulation Research, Vol. 19, p. 739, 1966 and Vol. 31, p. 65, 1972) was incubated in Angiotensinogen at 37° C. for 2 to 6 hours. Similarly, renin was incubated under the same conditions in the presence of 0.313 to 2.5 mg/ml. of each of the test compounds listed above. The amount of Angiotensin I was measured by radioimmunoassay (RIA) (E. Haber et al., J. Clin. Endocrinol., Vol. 29, p. 1349, 1969), and made the renin activity.
(§1) The results are shown in Table 1 (the rate of inhibiting the formation of Angiotensin I, as determined by Method I, when the plasma was incubated at 37° C. for 2, 4 and 6 hours respectively), and Table 2 (the rate of inhibiting the formation of Angiotensin I when the plasma was incubated at 37° C. for 4 hours, with the compound concentration of 1.25 mg/ml.)

[2] = biological target: T2, High renin plasma (Canis lupus familiaris, UniProt Q6DYE7); assay: Renin-inhibitory activity, Method II (high renin plasma of dog, inhibition of Angiotensin I formation); type: biochemical; conditions: Table 2; 37°C, 4 hours, 1.25 mg/ml; read-out: Rate of inhibiting the formation of Angiotensin I determined by Method II
T2 construct: High renin plasma prepared by constriction of the renal artery of a dog anesthetized with Nembutal; from tissue; host or cells: plasma of a dog with constricted renal artery
T2 sequence (Q6DYE7 66-403): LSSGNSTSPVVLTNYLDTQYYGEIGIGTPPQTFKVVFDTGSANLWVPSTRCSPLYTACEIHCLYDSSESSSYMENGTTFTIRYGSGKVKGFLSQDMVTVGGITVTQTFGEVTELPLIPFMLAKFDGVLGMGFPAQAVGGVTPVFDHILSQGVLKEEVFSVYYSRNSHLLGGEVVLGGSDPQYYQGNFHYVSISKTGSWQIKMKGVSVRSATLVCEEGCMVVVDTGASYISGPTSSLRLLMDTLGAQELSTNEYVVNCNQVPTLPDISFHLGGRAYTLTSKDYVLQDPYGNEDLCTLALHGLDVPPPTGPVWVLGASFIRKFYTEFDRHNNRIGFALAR
Protocol: High renin plasma prepared by constriction of the renal artery of a dog anesthetized with Nembutal (the plasma which when incubated at 37°40 C. for 6 hours, yields 30 to […]. of Angiotensin I) was incubated at 37° C. for 2 to 6 hours in the same way as in Method I, and also under the same conditions in the presence of 1.25 mg/ml. of each of the test compounds.
as §1

[3] = test system: renal hypertensive rats; assay: Antihypertensive activity in rats, p.o. (Table 4); type: in vivo, rat; conditions: 100 mg/kg/day p.o.
Protocol: An aqueous solution or suspension in peanut oil of each test compound as administered intramuscularly (i.m.) or orally (p.o.) at a dose of 30 to 100 mg/kg (body weight)/day once every morning over the period of 6 to 7 days.
The blood pressure of each rat was measured daily before and 5 hours after each administration. Furthermore, the blood pressure was measured every morning after drug withdrawal over a period of 3 to 6 days.
Test compounds (1)-(4) decreased the blood pressure of renal hypertensive rats with a dose of 30 mg/kg/day i.m.. […] The antihypertensive rats with a dose of 100 mg/kg/day p.o..

[4] = test system: plasma cholesterol level; assay: Cholesterol-lowering activity in rats (modified Greenberg method); type: in vivo, rat; conditions: 100 mg/Kg oral once a day, 5 consecutive days
Protocol: The effect of each of the test compounds on the plasma cholesterol level was examined in rats according to a slightly modified form of the C. M. Greenberg et al. method described in Am. J. Physiol., Vol. 202 (1961), p. 732. Rats were treated once a day with a 100 mg/Kg oral dose for 5 consecutive days instead of 7 days.

[5] = incubating time 2 hours, read-out: Rate of inhibiting the formation of Angiotensin I
[6] = incubating time 4 hours, read-out: Rate of inhibiting the formation of Angiotensin I
[7] = incubating time 6 hours, read-out: Rate of inhibiting the formation of Angiotensin I
[8] = Table 2, 37°C, 4 hours, read-out: Rate of inhibiting the formation of Angiotensin I determined by Method I
[9] = 1st day, 0 h (immediately before administration)
[10] = 1st day, 5 hours after administration
[11] = 2nd day, 5 hours after administration
[12] = 3rd day, 0 h (immediately before administration)
[13] = 3rd day, 5 hours after administration
[14] = 4th day, 0 h (immediately before administration)
[15] = 4th day, 5 hours after administration
[16] = 5th day, 0 h (immediately before administration)
[17] = 5th day, 5 hours after administration
[18] = 6th day, 0 h (immediately before administration)
[19] = 6th day, 5 hours after administration
[20] = 7th day, 0 h (immediately before administration)
[21] = 7th day, 5 hours after administration

Row | Compound | inhibition at 313 µg/mL [1, 5] [%] | inhibition at 313 µg/mL [1, 6] [%] | inhibition at 313 µg/mL [1, 7] [%] | inhibition at 625 µg/mL [1, 5] [%] | inhibition at 625 µg/mL [1, 6] [%] | inhibition at 625 µg/mL [1, 7] [%] | inhibition at 1250 µg/mL [1, 5] [%] | inhibition at 1250 µg/mL [1, 6] [%] | inhibition at 1250 µg/mL [1, 7] [%] | inhibition at 2500 µg/mL [1, 5] [%] | inhibition at 2500 µg/mL [1, 6] [%] | inhibition at 2500 µg/mL [1, 7] [%] | inhibition at 1250 µg/mL [1, 8] [%] | inhibition at 1250 µg/mL [2] [%] | Changes of blood pressure after drug withdrawal ([3]; 1st day after withdrawal) [mmHg] | Changes of blood pressure [3, 9] [mmHg] | Changes of blood pressure [3, 10] | Changes of blood pressure after drug withdrawal ([3]; 2nd day after withdrawal) [mmHg] | Changes of blood pressure [3, 11] [mmHg] | Changes of blood pressure after drug withdrawal ([3]; 3rd day after withdrawal) [mmHg] | other results
1 | NCCOP(=O)(O)OCCNC(=O)COc1ccc(Oc2ccc(Cl)cc2)cc1 [Compound (5), 2-[4-(4'-chlorophenoxy)phenoxyacetylamino]ethylphosphoryl ethanolamine] | 0 | 33 | 40 | 50 | 50 | 53 | 75 | 80 | 80 | 100 | 93 | 92 | 78 | 56 | -49 | 0 | +1 mmHg | -34 | -9 | -26 | Changes of blood pressure [3, 12]: -17 mmHg; Changes of blood pressure [3, 13]: -44 mmHg; Changes of blood pressure after drug withdrawal ([3]; 4th day after withdrawal): -21 mmHg; Changes of blood pressure [3, 14]: -21 mmHg; Changes of blood pressure [3, 15]: -41 mmHg; Changes of blood pressure after drug withdrawal ([3]; 5th day after withdrawal): -15 mmHg; Changes of blood pressure [3, 16]: -34 mmHg; Changes of blood pressure [3, 17]: -43 mmHg; Changes of blood pressure after drug withdrawal ([3]; 6th day after withdrawal): -7 mmHg; Changes of blood pressure [3, 18]: -37 mmHg; Changes of blood pressure [3, 19]: -49 mmHg; Changes of blood pressure [3, 20]: -40 mmHg; Changes of blood pressure [3, 21]: -49 mmHg; Cholesterol-lowering activity [4]: 48.6%
2 | CC(Oc1ccc(Oc2ccc(Cl)cc2)cc1)C(=O)NCCOP(=O)(O)OCCN (stereo not drawn) [Compound (6), 2-{α-[4-(4'-chlorophenoxy)phenoxy]propionylamino} ethylphosphoryl ethanolamine] | 25 | 33 | 33 | 50 | 56 | 53 | 75 | 78 | 67 | 100 | 93 | 89 | 78 | 55 | -37 | 0 | -9 mmHg | -32 | -4 | -18 | Changes of blood pressure ([3]; 2nd day, 0 h (immediately before administration)): +4 mmHg; Changes of blood pressure [3, 12]: -14 mmHg; Changes of blood pressure [3, 13]: -25 mmHg; Changes of blood pressure after drug withdrawal ([3]; 4th day after withdrawal): -8 mmHg; Changes of blood pressure [3, 14]: -18 mmHg; Changes of blood pressure [3, 15]: -27 mmHg; Changes of blood pressure after drug withdrawal ([3]; 5th day after withdrawal): -2 mmHg; Changes of blood pressure [3, 16]: -27 mmHg; Changes of blood pressure [3, 17]: -41 mmHg; Changes of blood pressure after drug withdrawal ([3]; 6th day after withdrawal): +1 mmHg; Changes of blood pressure [3, 18]: -34 mmHg; Changes of blood pressure [3, 19]: -47 mmHg; Changes of blood pressure [3, 20]: -36 mmHg; Changes of blood pressure [3, 21]: -51 mmHg; Cholesterol-lowering activity [4]: 48.1%
